What was measured:
[1] = biological target: recombinant human DPPI (Cathepsin C) (Homo sapiens (Human), UniProt P53634); experiment: Inhibition of human DPPI (Cathepsin C); assay type: biochemical; conditions: substrate Gly-Arg-AMC
In short: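 Fluorescence read after 30 min room-temperature turnover of 50 μM (final) substrate by recombinant human cathepsin C, pH 6.0 MES/NaCl/DTT/BSA buffer, quenched by Gly-Phe-DMK (1 μM final). Activity as percent of vehicle after background subtraction, used for IC50.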

[2] = biological target: recombinant human Cathepsin K (Homo sapiens (Human), UniProt P43235); experiment: Inhibition of human Cathepsin K; assay type: biochemical; conditions: substrate Z-Gly-Pro-Arg-AMC
In short: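 Fluorogenic Z-Gly-Pro-Arg-AMC cleavage, 60 min at room temperature, after a 10 min enzyme–compound preincubation (enzyme 2 ng/μL; compound 0.1 nM–100 μM; 1% DMSO). Buffer pH 5.5 with sodium acetate, EDTA and L-cysteine; procathepsin first activated 30 min at pH 3.5. E64 (1 μM) stop; IC50 derived from percent of vehicle signal minus background (Ex 360/Em 460 nm).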

[3] = Determination of metabolic stability with human liver microsomes; conditions: pooled human liver microsomes; for half-life at 1 μM: human, pH 7.6; for In vitro stability in human liver microsome incubations t½: 1 μM test compound, 37° C., NADPH
Description: Determination of Metabolic Stability with Human Liver Microsomes
The metabolic degradation of the test compound is assayed at 37° C. with pooled human liver microsomes. The final incubation volume of 100 μl per time point contains TRIS buffer pH 7.6 (0.1 M), magnesium chloride (5 mM), microsomal protein (1 mg/ml) and the test compound at a final concentration of 1 μM. Following a short preincubation period at 37° C., the reactions are initiated by addition of beta-nicotinamide adenine dinucleotide phosphate, reduced form (NADPH, 1 mM) and terminated by transferring an aliquot into acetonitrile after different time points. Additionally, the NADPH-independent degradation is monitored in incubations without NADPH, terminated at the last time point. The [%] remaining test compound after NADPH independent incubation is reflected by the parameter c (control) (metabolic stability). The quenched incubations are pelleted by centrifugation (10,000 g, 5 min). An aliquot of the supernatant is assayed by LC-MS/MS for the amount of parent compound.
The half-life (t½ INVITRO) is determined by the slope of the semilogarithmic plot of the concentration-time profile.

Chain of recombinant human Cathepsin K (P43235 115-329): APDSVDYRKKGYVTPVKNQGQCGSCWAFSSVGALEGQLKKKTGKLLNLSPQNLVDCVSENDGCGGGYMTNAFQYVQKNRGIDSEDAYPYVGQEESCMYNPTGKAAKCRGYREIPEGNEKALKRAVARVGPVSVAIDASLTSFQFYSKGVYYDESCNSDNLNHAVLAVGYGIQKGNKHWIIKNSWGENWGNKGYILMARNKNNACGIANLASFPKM
Chain of recombinant human DPPI (Cathepsin C) (P53634 231-394): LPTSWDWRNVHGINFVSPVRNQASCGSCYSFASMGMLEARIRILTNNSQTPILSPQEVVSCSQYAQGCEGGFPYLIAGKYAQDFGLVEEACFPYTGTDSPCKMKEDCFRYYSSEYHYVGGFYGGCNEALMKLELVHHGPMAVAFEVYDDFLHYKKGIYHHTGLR
Chain of recombinant human DPPI (Cathepsin C) (P53634 395-463): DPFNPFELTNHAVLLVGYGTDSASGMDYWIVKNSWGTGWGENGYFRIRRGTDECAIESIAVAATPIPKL
Chain of recombinant human DPPI (Cathepsin C) (P53634 25-134): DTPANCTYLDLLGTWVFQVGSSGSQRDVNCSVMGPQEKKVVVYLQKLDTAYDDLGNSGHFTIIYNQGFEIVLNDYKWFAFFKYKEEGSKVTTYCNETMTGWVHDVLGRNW

| SMILES | IC50 [1] | IC50 [2] | half-life at 1 μM [3] | In vitro stability in human liver microsome incubations t½ [3] |
| --- | --- | --- | --- | --- |
| CS(=O)(=O)c1cccc(-c2ccc(CC(C#N)NC(=O)[C@H]3N[C@@H]4CC[C@H]3C4)c(F)c2)c1 (stereo partly drawn) [Example 88] | 15.2 nM | 8800 nM | > 2.17 h | – |
| N#Cc1cc(F)c2[nH]c(=O)c3cc(C[C@@H](C#N)NC(=O)[C@H]4N[C@@H]5CC[C@H]4C5)c(F)cc3c2c1 [Example 325] | 1.3 nM | 2300 nM | > 2.17 h | – |
| N#CC(Cc1ccc(-c2cnn(-c3ccccc3)c2)cc1F)NC(=O)[C@H]1N[C@@H]2CC[C@H]1C2 (stereo partly drawn) [Example 78] | 12 nM | 6700 nM | – | 2.17 h |
| N#C[C@H](Cc1cc2c(=O)[nH]c3ccccc3c2cc1F)NC(=O)[C@H]1N[C@@H]2CC[C@H]1C2 [Example 322] | 0.8 nM | 1100 nM | > 2.17 h | – |
| CS(=O)(=O)c1cc(-c2ccc(CC(C#N)NC(=O)[C@H]3N[C@@H]4CC[C@H]3C4)c(F)c2)ccc1C#N (stereo partly drawn) [Example 19] | 2.8 nM | 5400 nM | > 2.17 h | – |
| N#Cc1ccc2[nH]c(=O)c3cc(CC(C#N)NC(=O)[C@H]4N[C@@H]5CC[C@H]4C5)ccc3c2c1 (stereo partly drawn) [Example 298] | 3.2 nM | 17600 nM | 1.75 h | – |
| CS(=O)(=O)c1ccc(-c2ccc(C[C@@H](C#N)NC(=O)[C@H]3N[C@@H]4CC[C@H]3C4)c(F)c2)cc1C#N [Example 159] | 1.6 nM | 3300 nM | > 2.17 h | – |
| N#C[C@H](Cc1ccc(-c2ccc3c(c2)CNC3=O)cc1F)NC(=O)[C@H]1N[C@H]2C[C@@H]1[C@@H]1C[C@@H]12 [Example 147] | 6.2 nM | 9700 nM | > 2.17 h | – |
| CS(=O)(=O)c1ccc(-c2ccc(C[C@@H](C#N)NC(=O)[C@H]3N[C@@H]4CC[C@H]3C4)c(F)c2)cc1OCC(F)F [Example 252] | 3.8 nM | 3300 nM | – | 2.17 h |
| N#C[C@H](Cc1ccc2c(c1)c(=O)[nH]c1cc(C(F)(F)F)ccc12)NC(=O)[C@H]1N[C@@H]2CC[C@H]1C2 [Example 301] | 4.5 nM | 19500 nM | 1.67 h | – |
| N#CC(Cc1ccc(-c2cccc(C(N)=O)c2)cc1F)NC(=O)[C@H]1N[C@@H]2CC[C@H]1C2 (stereo partly drawn) [Example 53] | 7.9 nM | 4100 nM | > 2.17 h | – |
| N#C[C@H](Cc1ccc(-c2ccc3c(c2)NC(=O)C3)cc1F)NC(=O)[C@H]1N[C@@H]2CC[C@H]1C2 [Example 29] | 4.2 nM | 1400 nM | > 2.17 h | – |
| N#C[C@H](Cc1ccc(-c2cccc(S(N)(=O)=O)c2)cc1F)NC(=O)[C@H]1N[C@H]2C[C@@H]1[C@@H]1C[C@@H]12 [Example 143] | 6.7 nM | 5100 nM | > 2.17 h | – |
| N#C[C@H](Cc1ccc(-c2ccc(C(N)=O)s2)cc1F)NC(=O)[C@H]1N[C@@H]2CC[C@H]1C2 [Example 236] | 1.6 nM | 1700 nM | > 2.17 h | – |
| N#CC(Cc1cc2c(=O)[nH]c3ccccc3c2cc1F)NC(=O)[C@H]1N[C@@H]2CC[C@H]1C2 (stereo partly drawn) [Example 294] | 1.6 nM | 2200 nM | > 2.17 h | – |
| N#CC(Cc1ccc(-c2ccc3c(c2)NC(=O)C3)cc1F)NC(=O)[C@H]1N[C@@H]2CC[C@H]1C2 (stereo partly drawn) [Example 22] | 3.3 nM | 3200 nM | > 2.17 h | – |
| CS(=O)(=NC#N)c1ccc(-c2ccc(C[C@@H](C#N)NC(=O)[C@H]3N[C@@H]4CC[C@H]3C4)c(F)c2)cc1 (stereo partly drawn) [Example 263] | 11.8 nM | 2100 nM | > 2.17 h | – |
| CNc1nc2cc(-c3ccc(C[C@@H](C#N)NC(=O)[C@H]4N[C@@H]5CC[C@H]4C5)c(F)c3)ccc2n1C [Example 253] | 11 nM | 5700 nM | > 2.17 h | – |
| N#C[C@H](Cc1ccc(-c2csc(C(=O)N3CCOCC3)c2)cc1F)NC(=O)[C@H]1N[C@@H]2CC[C@H]1C2 [Example 230] | 1.8 nM | 5900 nM | > 2.17 h | – |

Results, then the compound that gave them:

| IC50 [1] | IC50 [2] | half-life at 1 μM [3] | In vitro stability in human liver microsome incubations t½ [3] | SMILES |
| --- | --- | --- | --- | --- |
| 11.7 nM | 5300 nM | 1.4 h | – | CN1Cc2cc(-c3ccc(CC(C#N)NC(=O)[C@H]4N[C@@H]5CC[C@H]4C5)c(F)c3)ccc2C1=O (stereo partly drawn) [Example 76] |
| 26.4 nM | 9400 nM | > 2.17 h | – | N#CC(Cc1ccc(-c2ccc(Cl)nn2)cc1F)NC(=O)[C@H]1N[C@@H]2CC[C@H]1C2 (stereo partly drawn) [Example 108] |
| 22 nM | 9600 nM | > 2.17 h | – | CN1CCC2(CC1)CC(c1ccc(C[C@@H](C#N)NC(=O)[C@H]3N[C@@H]4CC[C@H]3C4)c(F)c1)C2 [Example 358] |
| 9.6 nM | 4600 nM | 1.48 h | – | N#C[C@H](Cc1ccc(-n2cc(C3CC3)nn2)cc1F)NC(=O)[C@H]1N[C@@H]2CC[C@H]1C2 [Example 67] |
| 10.7 nM | 2500 nM | > 2.17 h | – | CN1CCN(c2ccc(C[C@@H](C#N)NC(=O)[C@H]3N[C@@H]4CC[C@H]3C4)c(F)c2)CC1 [Example 6, (1S,2S,4R)—N-[(1S)-1-cyano-2-[2-fluoro-4-(4-methylpiperazin-1-yl)phenyl]ethyl]-3-azabicyclo[2.2.1]heptane-2-carboxamide] |
| 8.8 nM | 6300 nM | > 2.17 h | – | CN1CCC2(C=C(c3ccc(C[C@@H](C#N)NC(=O)[C@H]4N[C@@H]5CC[C@H]4C5)c(F)c3)C2)CC1 [Example 359] |
| 7.8 nM | 6600 nM | > 2.17 h | – | CN1CC2(C1)CN(c1ccc(C[C@@H](C#N)NC(=O)[C@H]3N[C@@H]4CC[C@H]3C4)c(F)c1)C2 [Example 330] |
| 10 nM | 6200 nM | 1.83 h | – | CN(C)C1CCCN(c2ccc(C[C@@H](C#N)NC(=O)[C@H]3N[C@@H]4CC[C@H]3C4)c(F)c2)C1 (stereo partly drawn) [Example 344, (1S,2S,4R)—N-[(1S)-1-cyano-2-[4-[3-(dimethylamino)-1-piperidyl]-2-fluoro-phenyl]ethyl]-3-azabicyclo[2.2.1]heptane-2-carboxamide] |
| 24.8 nM | 4300 nM | > 2.17 h | – | N#CC(Cc1ccc(-c2cnc(Cl)cn2)cc1F)NC(=O)[C@H]1N[C@@H]2CC[C@H]1C2 (stereo partly drawn) [Example 102] |
| 16 nM | 3500 nM | > 2.17 h | – | CC(=O)c1cn(-c2ccc(C[C@@H](C#N)NC(=O)[C@H]3N[C@@H]4CC[C@H]3C4)c(F)c2)nn1 [Example 90] |
| 6.8 nM | 2500 nM | 1.4 h | – | CN1CCN(C(=O)c2coc(-c3ccc(C[C@@H](C#N)NC(=O)[C@H]4N[C@@H]5CC[C@H]4C5)c(F)c3)c2)CC1 [Example 241] |
| 2.1 nM | 6100 nM | > 2.17 h | – | CS(=O)(=O)c1cc(-c2ccc(C[C@@H](C#N)NC(=O)[C@H]3N[C@@H]4CC[C@H]3C4)c(F)c2)ccc1F [Example 152] |
| 20.3 nM | 8400 nM | > 2.17 h | – | N#CC(Cc1ccc(-c2ncc(Cl)cn2)cc1F)NC(=O)[C@H]1N[C@@H]2CC[C@H]1C2 (stereo partly drawn) [Example 98] |
| 20.1 nM | 2500 nM | > 2.17 h | – | CCN1CCC(c2ccc(C[C@@H](C#N)NC(=O)[C@H]3N[C@@H]4CC[C@H]3C4)c(F)c2)CC1 [Example 201] |
